Literature values as cited in US20100172957A1, “EFLUCIMIBE MEDICAMENTS FOR PREVENTING/TREATING A DISEASE DUE TO SEBACEOUS GLAND DYSFUNCTION IN HUMANS OR ANIMALS” (GALDERMA RESEARCH & DEVELOPMENT, priority 2007, published 2010).

Test system: sebum production
Details: current treatment, background statement

For `CC1=C(/C=C/C(C)=C/C=C/C(C)=C\C(=O)O)C(C)(C)CCC1` [isotretinoin], the “decrease of sebum production” value is given as ~90%.
